Laboratory results: patent US8106048B2, “Heterocyclic NF-κB inhibitors” (4SC AG, priority 2004, dated 2012)

System: A549-NF-κB-SEAP reporter cells
Assay: Inhibition of NF-κB-induced inflammation: […] NINA Instant Assay, TNF-α stimulated SEAP reporter
Type: cell-based
Conditions: % inhibition classes
Description: For the determination of anti-inflammatory activity of the compounds the […]® NINA Instant Assay from Cell Culture Service GmBH was used. This assay is based on […] recombinant A549-NF-κB-SEAP reporter cells preceded in 96-well flat bottom plates. As the transfected reportergen for SEAP (secreted embryonic alkaline phosphatase) is under transcriptional control of a NF-κB-responsive element, the expression of this reporter is activated upon stimulation with TNF-α. SEAP secretion into the culture supernatant can be detected by the chemiluminescent substrate CSPD®. Test compounds that inhibit the NF-κB activation show reduced SEAP activity and reduced luminescent readout.
Following 18 h of reactivation at 37° C., 5% CO2 and 90% relative humidity, the cells were incubated with 0.01 up to 100 μM of test compound for 4.5 h before stimulation with 2 ng/ml TNF-α. After stimulation with TNF-α for 22 h endogenous phosphatases were inactivated and CSPD® substrate was supplied for 40 min. SEAP activity then was quantified by measuring luminescence as relative light units (RLU) using a Tecan Ultra reader. Each data point was recorded in quadruplicates and EC50 values were calculated via fitting function and the Microsoft Excel Solver.

SMILES | Biological activity (inhibition in the NF-κB inflammation assay)
Cc1cc2nc(NC(=O)c3csc(C4CCN(C(=O)c5cc(-c6ccc(Cl)cc6)oc5C(F)(F)F)CC4)n3)[nH]c2cc1C [compound 132] | + (“+” stands for 50-80% inhibition)
Cc1cc2nc(NC(=O)c3csc(C4CCN(C(=O)c5ccccc5OC(F)(F)F)CC4)n3)[nH]c2cc1C [compound 133] | +++ (“+++” stands for 90-100% inhibition)
O=C(Nc1ccccc1)N1CCC(c2nc(C(=O)N3CCN(c4cccc(C(F)(F)F)c4)CC3)cs2)CC1 [compound 134] | + (“+” stands for 50-80% inhibition)
O=C(Nc1cc(F)cc2c1OCCO2)N1CCC(c2nc(C(=O)N3CCN(c4cccc(C(F)(F)F)c4)CC3)cs2)CC1 [compound 135] | + (“+” stands for 50-80% inhibition)
O=C(Nc1ccc2c(c1)OCCO2)N1CCC(c2nc(C(=O)N3CCN(c4cccc(C(F)(F)F)c4)CC3)cs2)CC1 [compound 136] | + (“+” stands for 50-80% inhibition)
Cc1cc(NC(=O)N2CCC(c3nc(C(=O)N4CCN(c5cccc(C(F)(F)F)c5)CC4)cs3)CC2)c(C(F)(F)F)o1 [compound 137] | + (“+” stands for 50-80% inhibition)
O=C(Nc1ccccc1OC(F)(F)F)N1CCC(c2nc(C(=O)N3CCN(c4cccc(C(F)(F)F)c4)CC3)cs2)CC1 [compound 140] | + (“+” stands for 50-80% inhibition)
O=C(Nc1cccc(F)c1)N1CCC(c2nc(C(=O)N3CCN(c4cccc(C(F)(F)F)c4)CC3)cs2)CC1 [compound 142] | ++ (“++” means 80-90%)
O=C(Nc1ccc(F)cc1)N1CCC(c2nc(C(=O)N3CCN(c4cccc(C(F)(F)F)c4)CC3)cs2)CC1 [compound 143] | + (“+” stands for 50-80% inhibition)
Cc1cc2nc(NC(=O)c3csc(C4CCNCC4)n3)[nH]c2cc1C [compound 144] | + (“+” stands for 50-80% inhibition)
CC(c1cc2ccccc2[nH]1)N(C)C(=O)c1csc(C2CCN(C(=O)c3ccccc3OC(F)(F)F)CC2)n1 (centres unmarked) [compound 145] | + (“+” stands for 50-80% inhibition)
O=C(c1csc(C2CCN(C(=O)c3ccccc3OC(F)(F)F)CC2)n1)N1CCOC(c2ccccc2)C1 (centres unmarked) [compound 146] | + (“+” stands for 50-80% inhibition)
CN(C(=O)c1csc(C2CCN(C(=O)c3ccccc3OC(F)(F)F)CC2)n1)C(CN1CCOCC1)c1ccccc1 (centres unmarked) [compound 147] | + (“+” stands for 50-80% inhibition)
O=C(c1csc(C2CCN(C(=O)c3ccccc3OC(F)(F)F)CC2)n1)N(CCO)Cc1ccccc1 [compound 148] | ++ (“++” means 80-90%)
O=C(c1csc(C2CCN(C(=O)c3ccccc3OC(F)(F)F)CC2)n1)N(CCc1ccccc1)Cc1ccccc1 [compound 149] | + (“+” stands for 50-80% inhibition)
CNc1ccc(Cl)cc1C1c2ccccc2CCN1C(=O)c1csc(C2CCN(C(=O)c3ccccc3OC(F)(F)F)CC2)n1 (centres unmarked) [compound 150] | ++ (“++” means 80-90%)
O=C(c1csc(C2CCN(C(=O)c3ccccc3OC(F)(F)F)CC2)n1)N1CCN(c2cccc(Cl)c2)CC1 [compound 151] | + (“+” stands for 50-80% inhibition)
COc1nc(OC)nc(N2CCN(C(=O)c3csc(C4CCNCC4)n3)CC2)n1 [compound 152] | ++ (“++” means 80-90%)
COc1ccc(N2CCC(c3nc(C(=O)N4CCN(c5cccc(C(F)(F)F)c5)CC4)cs3)CC2)c(OC)c1 [compound 153] | + (“+” stands for 50-80% inhibition)
O=C(c1csc(C2CCN(c3ccc(OC(F)(F)F)cc3)CC2)n1)N1CCN(c2cccc(C(F)(F)F)c2)CC1 [compound 154] | + (“+” stands for 50-80% inhibition)
O=C(c1csc(C2CCN(c3ccc(C(F)(F)F)cc3)CC2)n1)N1CCN(c2cccc(C(F)(F)F)c2)CC1 [compound 155] | + (“+” stands for 50-80% inhibition)
O=C(c1csc(C2CCN(c3ccc4c(c3)OCO4)CC2)n1)N1CCN(c2cccc(C(F)(F)F)c2)CC1 [compound 156] | + (“+” stands for 50-80% inhibition)

SMILES | Biological activity (inhibition in the NF-κB inflammation assay)
O=C(c1csc(C2CCN(c3ccc4c(c3)OCCO4)CC2)n1)N1CCN(c2cccc(C(F)(F)F)c2)CC1 [compound 157] | + (“+” stands for 50-80% inhibition)
COc1ccccc1N1CCC(c2nc(C(=O)N3CCN(c4cccc(C(F)(F)F)c4)CC3)cs2)CC1 [compound 158] | + (“+” stands for 50-80% inhibition)
COc1ccc(N2CCC(c3nc(C(=O)N4CCN(c5cccc(C(F)(F)F)c5)CC4)cs3)CC2)cc1OC [compound 159] | + (“+” stands for 50-80% inhibition)
O=C(Cc1ccc(F)cc1)N1CCC(c2nc(C(=O)N3CCc4cc(O)c(O)cc4C3)cs2)CC1 [compound 160] | + (“+” stands for 50-80% inhibition)
COc1cc2c(cc1OC)CN(C(=O)c1csc(C3CCN(C(=O)Cc4ccc(F)cc4)CC3)n1)CC2 [compound 161] | + (“+” stands for 50-80% inhibition)
O=C(Cc1ccc(F)cc1)N1CCC(c2nc(C(=O)N3CCc4ccccc43)cs2)CC1 [compound 162] | + (“+” stands for 50-80% inhibition)
O=C(Cc1ccc(F)cc1)N1CCC(c2nc(C(=O)N3CCc4ccccc4C3)cs2)CC1 [compound 163] | + (“+” stands for 50-80% inhibition)
COc1cc(N2CCC(c3nc(C(=O)N4CCN(c5cccc(C(F)(F)F)c5)CC4)cs3)CC2)nc(OC)n1 [compound 164] | ++ (“++” means 80-90%)
O=C(c1csc(C2CCN(Cc3ccccc3Br)CC2)n1)N1CCN(c2cccc(C(F)(F)F)c2)CC1 [compound 165] | + (“+” stands for 50-80% inhibition)
N#Cc1ccc(CN2CCC(c3nc(C(=O)N4CCN(c5cccc(C(F)(F)F)c5)CC4)cs3)CC2)cc1 [compound 166] | + (“+” stands for 50-80% inhibition)
O=C(c1csc(C2CCN(Cc3ccc(-c4ccccc4)cc3)CC2)n1)N1CCN(c2cccc(C(F)(F)F)c2)CC1 [compound 167] | + (“+” stands for 50-80% inhibition)
O=C(c1csc(C2CCN(Cc3c(F)cccc3F)CC2)n1)N1CCN(c2cccc(C(F)(F)F)c2)CC1 [compound 168] | + (“+” stands for 50-80% inhibition)
O=C(c1csc(C2CCN(Cc3ccc(C(F)(F)F)cc3)CC2)n1)N1CCN(c2cccc(C(F)(F)F)c2)CC1 [compound 169] | + (“+” stands for 50-80% inhibition)
O=C(c1csc(C2CCN(Cc3ccc(F)cc3)CC2)n1)N1CCN(c2cccc(C(F)(F)F)c2)CC1 [compound 170] | + (“+” stands for 50-80% inhibition)
O=C(c1csc(C2CCN(Cc3ccc(F)cc3Cl)CC2)n1)N1CCN(c2cccc(C(F)(F)F)c2)CC1 [compound 171] | + (“+” stands for 50-80% inhibition)
O=C(c1csc(C2CCN(Cc3ccc(OC(F)(F)F)cc3)CC2)n1)N1CCN(c2cccc(C(F)(F)F)c2)CC1 [compound 172] | + (“+” stands for 50-80% inhibition)
COc1cccc(CN2CCC(c3nc(C(=O)N4CCN(c5cccc(C(F)(F)F)c5)CC4)cs3)CC2)c1 [compound 173] | + (“+” stands for 50-80% inhibition)
O=C(c1csc(C2CCN(Cc3ccc(Br)cc3)CC2)n1)N1CCN(c2cccc(C(F)(F)F)c2)CC1 [compound 174] | + (“+” stands for 50-80% inhibition)
O=C(c1csc(C2CCN(Cc3cc(C(F)(F)F)cc(C(F)(F)F)c3)CC2)n1)N1CCN(c2cccc(C(F)(F)F)c2)CC1 [compound 175] | + (“+” stands for 50-80% inhibition)
COc1nc(OC)nc(N2CCC(c3nc(C(=O)N4CCN(c5cccc(C(F)(F)F)c5)CC4)cs3)CC2)n1 [compound 176] | + (“+” stands for 50-80% inhibition)
O=C(c1csc(C2CCN(Cc3ccccc3)CC2)n1)N1CCN(c2cccc(C(F)(F)F)c2)CC1 [compound 177] | + (“+” stands for 50-80% inhibition)
COc1cccc(N2CCC(c3nc(C(=O)N4CCN(c5cccc(C(F)(F)F)c5)CC4)cs3)CC2)c1 [compound 178] | + (“+” stands for 50-80% inhibition)
